According to patent publication US20260284041A1, “PREVENTIVE OR THERAPEUTIC AGENT FOR NEURODEGENERATIVE DISEASE” (MEDILABO RFP, INC., priority 2023, published 2026):
≈ marks a conversion by molar mass, not a printed value.

Assays:
C9orf72 HRE-derived RNAs = conditions: in vitro; cited from earlier work
PKR = conditions: reported in NPL 31; cited from earlier work
FTD/ALS model mice [1] = test: Immunohistochemical analysis of brain sections (Test Example 2); type: in vivo, mouse; conditions: single agents 0.04 mg/day, combination 0.02+0.02 mg/day, nasal 1 month
Description: (§1) Age-matched non-Tg […] mates received only CMC.
After the behavioral test, each group was divided into two groups: one for immunohistochemical analysis and the other for future biochemical analysis. Immunohistochemical staining was performed as described above. For staining of double-stranded RNA-dependent protein kinase (PKR), phosphorylated TDP-43, synaptophysin, sections were boiled in 10 mM citrate buffer solution (pH6) for 30 min to expose the antigens. The sections were blocked overnight with 10% calf serum, and then the resultant sections were stained with antibodies for DNA/RNA G-quadruplex (BG4; Absolute antibody, Cleveland, UK), phospho-PKR (Thr446) (MilliporeSigma, Burlington, MA, USA), poly-GA, poly-GP (Cosmo Bio Co., Ltd., Tokyo, Japan), pSer409/410-TDP-43 (Cosmo Bio Co., Ltd.), and synaptophysin (SVP-38; Sigma-Aldrich, St. Luis, MO, USA). Only synaptophysin was stained with a biotin-labeled secondary antibody (Vector Laboratories, Burlingame, CA, USA), a horseradish peroxidase (HRP)-labeled avidin-biotin complex (Vector Laboratories), HRP substrate, diaminobenzidine (DAB), or an FITC-labeled secondary antibody (The Jackson Laboratory). […] Neuropathologies were evaluated by measuring the staining intensity or area or by counting positive puncta or cells in a constant area in each photograph using NIH ImageJ software.

FTD/ALS model mice [2] = test: Morris water maze test after nasal rifampicin and/or resveratrol (Test Example 2); type: in vivo, mouse; conditions: 1 month, 7- to 8-month-old mice, single agents 0.04 mg/day, combination 0.02 mg + 0.02 mg/day, FIG. 10
From the text: FVB/NJ-Tg(C9orf72)500Lpwr/J mice (FTD/ALS model mice) were purchased from The Jackson Laboratory (Bar Harbor, ME, USA). The mouse strain was generated as a model for the C9orf72-associated FTD/ALS expressing the human C9orf72 gene with about 500 hexanucleotide (GGGGCC) repeats using a bacterial artificial chromosome (BAC) vector. Transgenic (Tg) mice were crossed with wild-type FVB/NJcl mice, and the transgene was maintained as a heterozygote at our animal facility.
as §1
After administration for one month, the cognitive function of the mice was assessed in the Morris water maze test as described above.

[3] = cited from earlier work
BDNF = conditions: stated in discussion, no method given; cited from earlier work
[4] = tested on: FTD/ALS model mice (C9-500 mice); test: Double staining for RNA foci and cytoplasmic inclusions (Test Example 1); type: in vivo, mouse; conditions: PFC and MC; nasal 0.1 mg/day for 1 month; FIG. 6
From the text: To examine the formation of nuclear and cytoplasmic inclusions, the sections were double stained with antibodies to G-quadruplex and hnRNP H1 (Proteintech, Rosemont, IL, USA) without pretreatment for RNA foci, and pSer409/410-TDP-43 and amyloidogenic protein oligomers (F11G3; Sigma-Aldrich) after pretreatment at pH6 for TDP-43 oligomer inclusions. For DPR inclusions, the sections were double-stained with antibodies to poly-GA, poly-GP, poly-GR, and SQSTM1/p62 (A-6; Santa Cruz Biotechnology, Dallas, TX, USA) without pretreatment. After staining, FITC- and rhodamine-labeled secondary antibodies (Jackson Laboratory) were used. The specimens were then treated with TrueBlack Plus Lipofuscin (Biotium, Fremont, CA, USA) to quench the autofluorescence and mounted using a Vectashield vibrance antifade mounting medium with DAPI (Vector Laboratories). Images of the stained sections were taken with a BZ-X800 fluorescence microscope, and cells having inclusion bodies were counted in a certain area.
(§2) 4-and-a half to 5-month-old FTD/ALS model mice were divided into two groups. […] Non-Tg littermates were treated with CMC alone. […] After the behavioral test, each group was divided into two groups: one group for immunohistochemical analysis and the other group for future biochemical analysis. For immunohistochemical analysis, brain sections were prepared as described above, while for biochemical analysis, whole brains were removed and frozen at −80° C. until use.

[5] = tested on: FTD/ALS model mice (C9-500 mice); test: Morris water maze test after nasal rifampicin (Test Example 1); type: in vivo, mouse; conditions: nasal 0.1 mg/day for 1 month; Tg mice 4.5 to 5 months old at start; vs CMC-treated Tg (p=0.0271, FIG. 4)
From the text: FVB/NJ-Tg(C9orf72)500Lpwr/J mice were purchased from The Jackson Laboratory (Bar Harbor, ME, USA). The mouse strain was generated as a model for the C9orf72-linked FTD/ALS expressing the human C9orf72 gene with 500 hexanucleotide (GGGGCC) repeats (hereinafter, it is also described as “FTD/ALS model mice”) using a bacterial artificial chromosome (BAC) vector. Transgenic (Tg) mice were crossed with wild-type FVB/NJcl mice, and the transgene was maintained as a heterozygote at the animal facility in our company.
The cognitive function of the mice was assessed in a Morris water maze test at the age of 4.5 months, and the motor function of the mice was assessed in the rotarod and inverted screen tests at the age of 4.5 months and at the age of 12 months in an above-described manner.
as §2

phospho-PKR (Thr446) = test: Immunohistochemical studies of phosphorylated PKR (Test Example 1); type: in vivo, mouse; conditions: PFC and MC; nasal 0.1 mg/day for 1 month; FIG. 8B
Description: as §2

[6] = tested on: (GGGGCC)4 oligonucleotides; test: Gel shift assay for G-quadruplex; type: biochemical; conditions: 1 mM rifampicin, 5 μM DNA, 100 mM KCl; FIG. 8A
Description: The gel shift assay to detect G-quadruplex formation was performed. Sense (GGGGCC)4, antisense (GGCCCC)4, and Control (ATGC)6 oligonucleotides were synthesized and solubilized to 100 μM in 0.89 M of Tris-borate buffer, pH8.3 containing 0.02 M of EDTA (TBE). […] The mixtures were incubated at 98° C. for 3 min and slowly cooled to room temperature. The samples were mixed with Blue/Orange Loading Dye (Promega Corporation, Madison, WI, USA) and subjected to native PAGE with 20% polyacrylamide gel (Novex TBE Gels, Invitrogen, Carlsbad, CA, USA) and TBE running buffer containing 50 mM KCl. The gels were stained with SYBR Gold nucleic acid gel stain (Invitrogen) for 10 min, and images were acquired using an ImageQuant LAS 500 image analyzer (GE Healthcare, Hino, Japan).

CC(=O)O.N [ammonium acetate]
RNA gelation and RNA foci formation (C9orf72 HRE-derived RNAs): inhibited

COc1cccc2c1C(=O)c1c(O)c3c(c(O)c1C2=O)C[C@@](O)(C(=O)CO)C[C@@H]3O[C@H]1C[C@H](N)[C@H](O)[C@H](C)O1 [doxorubicin]
RNA gelation and RNA foci formation (C9orf72 HRE-derived RNAs): inhibited

CN(C)C(=N)N=C(N)N [metformin]
RAN translation / PKR phosphorylation and phenotype of C9-500 mice (PKR): suppress RAN translation by suppressing PKR phosphorylation

Oc1ccc(/C=C/c2cc(O)cc(O)c2)cc1 [resveratrol, 3,5,4′-trihydroxy-trans-stilbene]
synaptophysin levels (synaptic loss) (FTD/ALS model mice [1]; hippocampus CA2-3 region and dentate gyrus (DG), FIG. 11): significantly restored
levels of G-quadruplex (FTD/ALS model mice [1]; prefrontal cortex, FIG. 12): significantly reduced
levels of phosphorylated PKR (FTD/ALS model mice [1]; prefrontal cortex, FIG. 13): significantly reduced
levels of poly-GA and poly-GP (FTD/ALS model mice [1]; prefrontal cortex, FIG. 14): significantly reduced
levels of phosphorylated TDP-43 (FTD/ALS model mice [1]; prefrontal cortex, FIG. 15): significantly reduced
cognitive function, Morris water maze (FTD/ALS model mice [2]): significantly improved
solubility in water [3]: 30 µg/mL (≈ 131 µM)
expression of BDNF in the mouse brains (BDNF): elicited

CO[C@H]1/C=C/O[C@@]2(C)Oc3c(C)c(O)c4c(O)c(c(/C=N/N5CCN(C)CC5)c(O)c4c3C2=O)NC(=O)/C(C)=C\C=C\[C@H](C)[C@H](O)[C@@H](C)[C@@H](O)[C@@H](C)[C@H](OC(C)=O)[C@@H]1C [rifampicin, 3-(4-Methylpiperazinyliminomethyl)rifamycin SV]
DPR cytoplasmic inclusions (DPRs and p62 double positive) [4]: significantly attenuated
TDP-43 oligomer cytoplasmic inclusions (pTDP-43 and F11G3 double positive) [4]: significantly attenuated
formation of RNA foci (G-quadruplex and hnRNP H double positive) [4]: significantly attenuated
cognitive function, Morris water maze (FTD/ALS model mice [2]): improved the cognitive function in the mice, but the effect was incomplete and not significant
memory performance (cognitive function), water maze test [5]: significantly improved
levels of phosphorylated PKR (phospho-PKR (Thr446)): significantly attenuated
inhibition of G-quadruplex formation [6]: failed to inhibit
